Measurements taken from PubChem BioAssay (NCI).
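Growth conditions: 96-well plates. Treatment: test compound, 48 hours, 5 concentrations. Analysis: linear interpolation between bracketing concentrations; unreached endpoints set to highest concentration. Here, GI50 denotes the concentration required for 50% inhibition of growth. TGI: total growth inhibition.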

Columns and labels:
Experiment in all cases: NCI-60 cell line screen, 48 h
NCI-H226 lung = system: NCI-H226 lung
SR leukemia = system: SR leukemia
NCI-H23 lung = system: NCI-H23 lung
MDA-MB-435 = system: MDA-MB-435
EKVX NSCLC = system: EKVX NSCLC
OVCAR-5 ovarian = system: OVCAR-5 ovarian
OVCAR-3 ovarian = system: OVCAR-3 ovarian
RPMI-8226 leukemia = system: RPMI-8226 leukemia
TK-10 renal = system: TK-10 renal
NCI/ADR-RES ovarian = system: NCI/ADR-RES ovarian
SF-295 CNS = system: SF-295 CNS
U251 CNS = system: U251 CNS
OVCAR-4 ovarian = system: OVCAR-4 ovarian
OVCAR-8 ovarian = system: OVCAR-8 ovarian
T-47D breast = system: T-47D breast
786-0 renal = system: 786-0 renal
HT29 colon = system: HT29 colon
COLO 205 colon = system: COLO 205 colon
SK-MEL-2 melanoma = system: SK-MEL-2 melanoma
LOX IMVI melanoma = system: LOX IMVI melanoma
SK-MEL-28 melanoma = system: SK-MEL-28 melanoma
SK-MEL-5 melanoma = system: SK-MEL-5 melanoma
HOP-92 NSCLC = system: HOP-92 NSCLC
A549 NSCLC = system: A549 NSCLC
HS 578T breast = system: HS 578T breast
SF-539 CNS = system: SF-539 CNS
IGROV1 ovarian = system: IGROV1 ovarian
HCT-116 colon = system: HCT-116 colon
UACC-62 melanoma = system: UACC-62 melanoma
HOP-62 NSCLC = system: HOP-62 NSCLC
SNB-19 CNS = system: SNB-19 CNS
CAKI-1 renal = system: CAKI-1 renal
HCC-2998 colon = system: HCC-2998 colon
BT-549 breast = system: BT-549 breast
M14 melanoma = system: M14 melanoma
RXF 393 renal = system: RXF 393 renal
NCI-H460 lung = system: NCI-H460 lung
MOLT-4 leukemia = system: MOLT-4 leukemia
ACHN renal = system: ACHN renal
SK-OV-3 ovarian = system: SK-OV-3 ovarian
PC-3 prostate = system: PC-3 prostate
NCI-H522 lung = system: NCI-H522 lung
SN12C renal = system: SN12C renal
CCRF-CEM leukemia = system: CCRF-CEM leukemia
SF-268 CNS = system: SF-268 CNS
SW-620 colon = system: SW-620 colon
UO-31 renal = system: UO-31 renal
HCT-15 colon = system: HCT-15 colon
K-562 leukemia = system: K-562 leukemia
HL-60(TB) leukemia = system: HL-60(TB) leukemia
MCF7 breast = system: MCF7 breast
A498 renal = system: A498 renal
SNB-75 CNS = system: SNB-75 CNS
MALME-3M melanoma = system: MALME-3M melanoma
DU-145 prostate = system: DU-145 prostate
MDA-MB-231 breast = system: MDA-MB-231 breast
UACC-257 melanoma = system: UACC-257 melanoma
KM12 colon = system: KM12 colon

c1c2c(cc3c1OCO3)-c1ncc3cc4c(cc3c1C2)OCO4
GI50 (NCI-H226 lung): 8.8 µM
TGI (NCI-H226 lung): > 100 µM
GI50 (SR leukemia): < 0.01 µM
GI50 (NCI-H23 lung): < 0.0229 µM
TGI (NCI-H23 lung): > 24.7 µM
GI50 (MDA-MB-435): 54 µM
TGI (MDA-MB-435): > 100 µM
GI50 (EKVX NSCLC): 19 µM
TGI (EKVX NSCLC): > 100 µM
GI50 (OVCAR-5 ovarian): 44.7 µM
TGI (OVCAR-5 ovarian): > 100 µM
GI50 (OVCAR-3 ovarian): 180 nM
TGI (OVCAR-3 ovarian): 356 nM
GI50 (RPMI-8226 leukemia): 108 nM
TGI (RPMI-8226 leukemia): > 76.9 µM
GI50 (TK-10 renal): 143 nM
TGI (TK-10 renal): 3.87 µM
GI50 (NCI/ADR-RES ovarian): 50.8 nM
TGI (NCI/ADR-RES ovarian): 52.4 µM
TGI (SF-295 CNS): > 34 µM
GI50 (U251 CNS): < 0.0369 µM
TGI (U251 CNS): 26.9 µM
GI50 (OVCAR-4 ovarian): 28.6 µM
TGI (OVCAR-4 ovarian): > 100 µM
GI50 (OVCAR-8 ovarian): 111 nM
TGI (OVCAR-8 ovarian): 10.7 µM
GI50 (T-47D breast): > 100 µM
TGI (T-47D breast): > 100 µM
TGI (786-0 renal): 44.2 µM
GI50 (HT29 colon): < 0.01 µM
TGI (HT29 colon): > 100 µM
GI50 (COLO 205 colon): < 0.0354 µM
GI50 (SK-MEL-2 melanoma): > 8.58 µM
TGI (SK-MEL-2 melanoma): > 87.1 µM
GI50 (LOX IMVI melanoma): < 0.01 µM
TGI (LOX IMVI melanoma): 94.1 µM
GI50 (SK-MEL-28 melanoma): < 0.01 µM
TGI (SK-MEL-28 melanoma): 41.8 µM
GI50 (SK-MEL-5 melanoma): 216 nM
TGI (SK-MEL-5 melanoma): 479 nM
GI50 (HOP-92 NSCLC): 33.4 µM
TGI (HOP-92 NSCLC): > 80.5 µM
GI50 (A549 NSCLC): 702 nM
TGI (A549 NSCLC): > 77 µM
TGI (HS 578T breast): > 94.8 µM
GI50 (SF-539 CNS): 598 nM
TGI (SF-539 CNS): 5.25 µM
TGI (IGROV1 ovarian): > 100 µM
GI50 (HCT-116 colon): < 0.0305 µM
TGI (HCT-116 colon): > 61.2 µM
GI50 (UACC-62 melanoma): < 0.0267 µM
TGI (UACC-62 melanoma): 9.16 µM
GI50 (HOP-62 NSCLC): 112 nM
TGI (HOP-62 NSCLC): 27.5 µM
TGI (SNB-19 CNS): 43.6 µM
GI50 (CAKI-1 renal): < 0.0154 µM
TGI (CAKI-1 renal): 2140 nM
TGI (HCC-2998 colon): > 32.4 µM
GI50 (BT-549 breast): 211 nM
TGI (BT-549 breast): > 100 µM
GI50 (M14 melanoma): < 0.01 µM
TGI (M14 melanoma): > 100 µM
GI50 (RXF 393 renal): 797 nM
TGI (RXF 393 renal): 43.5 µM
GI50 (NCI-H460 lung): 108 nM
TGI (NCI-H460 lung): > 47.1 µM
GI50 (MOLT-4 leukemia): 14.7 nM
TGI (MOLT-4 leukemia): 152 nM
GI50 (ACHN renal): 33.7 nM
TGI (ACHN renal): 6.33 µM
GI50 (SK-OV-3 ovarian): < 0.01 µM
TGI (SK-OV-3 ovarian): 26.8 µM
GI50 (PC-3 prostate): 581 nM
TGI (PC-3 prostate): > 100 µM
TGI (NCI-H522 lung): 72.2 µM
GI50 (SN12C renal): 41.4 nM
TGI (SN12C renal): > 100 µM
GI50 (CCRF-CEM leukemia): 17.6 µM
TGI (CCRF-CEM leukemia): > 100 µM
GI50 (SF-268 CNS): 112 nM
TGI (SF-268 CNS): 7.79 µM
GI50 (SW-620 colon): 136 nM
TGI (SW-620 colon): > 100 µM
GI50 (UO-31 renal): 2490 nM
TGI (UO-31 renal): > 100 µM
GI50 (HCT-15 colon): < 0.01 µM
TGI (HCT-15 colon): 24.8 µM
GI50 (K-562 leukemia): 10.1 nM
TGI (K-562 leukemia): > 64.9 µM
GI50 (HL-60(TB) leukemia): 71.3 nM
TGI (HL-60(TB) leukemia): > 100 µM
GI50 (MCF7 breast): < 0.0377 µM
TGI (MCF7 breast): 7.44 µM

O=C(c1ccccc1)c1nn(-c2cccc(Cl)c2)c2nc3nc(-c4ccccc4)cc(=O)n3nc12
GI50 (A498 renal): > 25 µM
TGI (A498 renal): > 25 µM
GI50 (NCI-H226 lung): > 25 µM
TGI (NCI-H226 lung): > 25 µM
GI50 (SR leukemia): > 25 µM
TGI (SR leukemia): > 25 µM
GI50 (SNB-75 CNS): > 25 µM
TGI (SNB-75 CNS): > 25 µM
GI50 (NCI-H23 lung): > 25 µM
TGI (NCI-H23 lung): > 25 µM
GI50 (MALME-3M melanoma): > 25 µM
TGI (MALME-3M melanoma): > 25 µM
GI50 (DU-145 prostate): > 25 µM
TGI (DU-145 prostate): > 25 µM
GI50 (MDA-MB-435): > 25 µM
TGI (MDA-MB-435): > 25 µM
GI50 (EKVX NSCLC): > 25 µM
TGI (EKVX NSCLC): > 25 µM
GI50 (OVCAR-3 ovarian): > 25000 nM
TGI (OVCAR-3 ovarian): > 25000 nM
GI50 (RPMI-8226 leukemia): > 25000 nM
TGI (RPMI-8226 leukemia): > 25 µM
GI50 (TK-10 renal): > 25000 nM
TGI (TK-10 renal): > 25 µM
GI50 (NCI/ADR-RES ovarian): > 25000 nM
TGI (NCI/ADR-RES ovarian): > 25 µM
GI50 (SF-295 CNS): > 25 µM
TGI (SF-295 CNS): > 25 µM
GI50 (U251 CNS): > 25 µM
TGI (U251 CNS): > 25 µM
GI50 (OVCAR-4 ovarian): > 25 µM
TGI (OVCAR-4 ovarian): > 25 µM
GI50 (OVCAR-8 ovarian): > 25000 nM
TGI (OVCAR-8 ovarian): > 25 µM
GI50 (T-47D breast): > 25 µM
TGI (T-47D breast): > 25 µM
GI50 (HT29 colon): > 25 µM
TGI (HT29 colon): > 25 µM
GI50 (COLO 205 colon): > 25 µM
TGI (COLO 205 colon): > 25 µM
GI50 (MDA-MB-231 breast): > 25 µM
TGI (MDA-MB-231 breast): > 25 µM
GI50 (SK-MEL-2 melanoma): > 25 µM
TGI (SK-MEL-2 melanoma): > 25 µM
GI50 (LOX IMVI melanoma): > 25 µM
TGI (LOX IMVI melanoma): > 25 µM
GI50 (SK-MEL-28 melanoma): > 25 µM
TGI (SK-MEL-28 melanoma): > 25 µM
GI50 (SK-MEL-5 melanoma): > 25000 nM
TGI (SK-MEL-5 melanoma): > 25000 nM
GI50 (HOP-92 NSCLC): > 25 µM
TGI (HOP-92 NSCLC): > 25 µM
GI50 (A549 NSCLC): > 25000 nM
TGI (A549 NSCLC): > 25 µM
GI50 (HS 578T breast): > 25 µM
TGI (HS 578T breast): > 25 µM
GI50 (UACC-257 melanoma): > 25 µM
TGI (UACC-257 melanoma): > 25 µM
GI50 (SF-539 CNS): > 25000 nM
TGI (SF-539 CNS): > 25 µM
GI50 (IGROV1 ovarian): > 25 µM
TGI (IGROV1 ovarian): > 25 µM
GI50 (HCT-116 colon): > 25 µM
TGI (HCT-116 colon): > 25 µM
GI50 (UACC-62 melanoma): > 25 µM
TGI (UACC-62 melanoma): > 25 µM
GI50 (HOP-62 NSCLC): > 25000 nM
TGI (HOP-62 NSCLC): > 25 µM
GI50 (SNB-19 CNS): > 25 µM
TGI (SNB-19 CNS): > 25 µM
GI50 (CAKI-1 renal): > 25 µM
TGI (CAKI-1 renal): > 25000 nM
GI50 (HCC-2998 colon): 22.6 µM
TGI (HCC-2998 colon): > 25 µM
GI50 (BT-549 breast): > 25000 nM
TGI (BT-549 breast): > 25 µM
GI50 (M14 melanoma): > 25 µM
TGI (M14 melanoma): > 25 µM
GI50 (KM12 colon): > 25 µM
TGI (KM12 colon): > 25 µM
GI50 (RXF 393 renal): > 25000 nM
TGI (RXF 393 renal): > 25 µM
GI50 (NCI-H460 lung): > 25000 nM
TGI (NCI-H460 lung): > 25 µM
GI50 (MOLT-4 leukemia): > 25000 nM
TGI (MOLT-4 leukemia): > 25000 nM
GI50 (ACHN renal): > 25000 nM
TGI (ACHN renal): > 25 µM
GI50 (SK-OV-3 ovarian): > 25 µM
TGI (SK-OV-3 ovarian): > 25 µM
GI50 (PC-3 prostate): > 25000 nM
TGI (PC-3 prostate): > 25 µM
GI50 (NCI-H522 lung): > 25 µM
TGI (NCI-H522 lung): > 25 µM
GI50 (SN12C renal): > 25000 nM
TGI (SN12C renal): > 25 µM
GI50 (CCRF-CEM leukemia): > 25 µM
TGI (CCRF-CEM leukemia): > 25 µM
GI50 (SF-268 CNS): > 25000 nM
TGI (SF-268 CNS): > 25 µM
GI50 (SW-620 colon): > 25000 nM
TGI (SW-620 colon): > 25 µM
GI50 (UO-31 renal): > 25000 nM
TGI (UO-31 renal): > 25 µM
GI50 (HCT-15 colon): > 25 µM
TGI (HCT-15 colon): > 25 µM
GI50 (K-562 leukemia): > 25000 nM
TGI (K-562 leukemia): > 25 µM
GI50 (HL-60(TB) leukemia): 5100 nM
TGI (HL-60(TB) leukemia): 16.7 µM
GI50 (MCF7 breast): > 25 µM
TGI (MCF7 breast): > 25 µM
